# What was measured:
# Type in all cases: in vivo
# [1] = system: representative range of plants; experiment: Post-emergence herbicidal test, summary over the plants tested
# Procedure: (§1) To evaluate their herbicidal activity, compounds according to the invention are tested using a representative range of plants:
# […] After spraying, the plants are placed on greenhouse benches and are cared for in the usual manner, commensurate with conventional greenhouse practices.
# (§2) The herbicidal effects of the test compounds are assessed visually twenty-one days after spraying the foliage and the soil and are recorded on a 0-9 scale. A rating 0 indicates growth as untreated control, a rating 9 indicates death. An increase of 1 unit on the linear scale approximates to a 10% increase in the level of effect.
# [2] = system: Alopecurus myosuroides; experiment: Pre-emergence herbicidal test, ALOMY; parameters: key to herbicidal effect (0-9 scale) ALOMY / herbicidal rating ALOMY: A rating 0 indicates growth as untreated control; a rating 9 indicates death; conditions: for herbicidal rating ALOMY: PRE, 0-9 scale, 21 days after spraying
# [3] = system: Matricaria inodora; experiment: Pre-emergence herbicidal test, MATIN; parameters: key to herbicidal effect (0-9 scale) MATIN / herbicidal rating MATIN: A rating 0 indicates growth as untreated control; a rating 9 indicates death; conditions: PRE, 0-9 scale, 21 days after spraying
# [4] = system: Galium aparine; experiment: Post-emergence herbicidal test, GALAP; parameters: key to herbicidal effect (0-9 scale) GALAP / herbicidal rating GALAP: A rating 0 indicates growth as untreated control; a rating 9 indicates death; conditions: POST, 0-9 scale, 21 days after spraying
# Method in brief: (§3)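 Herbicidal effect is recorded on a linear 0-9 scale, where 0 means growth like untreated control and 9 means death, with one unit approximating 10% more effect.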
# [5] = system: Stellaria media; experiment: Pre-emergence herbicidal test, STEME; parameters: key to herbicidal effect (0-9 scale) STEME / herbicidal rating STEME: A rating 0 indicates growth as untreated control; a rating 9 indicates death; conditions: PRE, 0-9 scale, 21 days after spraying
# [6] = system: Zea mays; experiment: Pre-emergence herbicidal test, ZEAMX; parameters: key to herbicidal effect (0-9 scale) ZEAMX / herbicidal rating ZEAMX: A rating 0 indicates growth as untreated control; a rating 9 indicates death; conditions: for herbicidal rating ZEAMX: PRE, 0-9 scale, 21 days after spraying
# [7] = system: Galium aparine; experiment: Pre-emergence herbicidal test, GALAP; parameters: key to herbicidal effect (0-9 scale) GALAP / herbicidal rating GALAP: A rating 0 indicates growth as untreated control; a rating 9 indicates death; conditions: PRE, 0-9 scale, 21 days after spraying
# [8] = system: Matricaria inodora; experiment: Post-emergence herbicidal test, MATIN; parameters: key to herbicidal effect (0-9 scale) MATIN / herbicidal rating MATIN: A rating 0 indicates growth as untreated control; a rating 9 indicates death; conditions: POST, 0-9 scale, 21 days after spraying
# Method in brief: as §3
# [9] = system: Abutilon theophrasti; experiment: Post-emergence herbicidal test, ABUTH; parameters: key to herbicidal effect (0-9 scale) ABUTH / herbicidal rating ABUTH: A rating 0 indicates growth as untreated control; a rating 9 indicates death; conditions: POST, 0-9 scale, 21 days after spraying
# Method in brief: as §3
# [10] = system: Zea mays; experiment: Post-emergence herbicidal test, ZEAMX; parameters: key: A rating 0 indicates growth as untreated control; a rating 9 indicates death; conditions: 0-9 scale, 21 days after spraying
# Method in brief: as §3
# [11] = system: Abutilon theophrasti; experiment: Pre-emergence herbicidal test, ABUTH; parameters: key to herbicidal effect (0-9 scale) ABUTH / herbicidal rating ABUTH: A rating 0 indicates growth as untreated control; a rating 9 indicates death; conditions: PRE, 0-9 scale, 21 days after spraying
# [12] = system: Stellaria media; experiment: Post-emergence herbicidal test, STEME; parameters: key to herbicidal effect (0-9 scale) STEME / herbicidal rating STEME: A rating 0 indicates growth as untreated control; a rating 9 indicates death; conditions: POST, 0-9 scale, 21 days after spraying
# Method in brief: as §3
# [13] = system: Ipomoea hederacea; experiment: Pre-emergence herbicidal test, IPOHE; parameters: key: A rating 0 indicates growth as untreated control; a rating 9 indicates death; conditions: 0-9 scale, 21 days after spraying
# [14] = system: Ipomoea hederacea; experiment: Post-emergence herbicidal test, IPOHE; parameters: key to herbicidal effect (0-9 scale) IPOHE / herbicidal rating IPOHE: A rating 0 indicates growth as untreated control; a rating 9 indicates death; conditions: POST, 0-9 scale, 21 days after spraying
# Method in brief: (§4)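 Compounds in acetone solution were diluted with water and sprayed post-emergence onto foliage and soil at about 1000, 800, 400, 250 or 100 g/ha. Plants were kept on greenhouse benches under conventional care.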
# [15] = system: Glycine max; experiment: Post-emergence herbicidal test, GLXMA; parameters: key: A rating 0 indicates growth as untreated control; a rating 9 indicates death; conditions: 0-9 scale, 21 days after spraying
# Method in brief: as §3
# [16] = system: Setaria viridis; experiment: Post-emergence herbicidal test, SETVI; parameters: key to herbicidal effect (0-9 scale) SETVI / herbicidal rating SETVI: A rating 0 indicates growth as untreated control; a rating 9 indicates death; conditions: POST, 0-9 scale, 21 days after spraying
# Method in brief: as §3
# [17] = system: Echinochloa crus-galli; experiment: Pre-emergence herbicidal test, ECHCG; parameters: key: A rating 0 indicates growth as untreated control; a rating 9 indicates death; conditions: 0-9 scale, 21 days after spraying
# [18] = system: Echinochloa crus-galli; experiment: Post-emergence herbicidal test, ECHCG; parameters: key: A rating 0 indicates growth as untreated control; a rating 9 indicates death; conditions: 0-9 scale, 21 days after spraying
# Method in brief: as §3
# [19] = system: Setaria viridis; experiment: Pre-emergence herbicidal test, SETVI; parameters: key to herbicidal effect (0-9 scale) SETVI / herbicidal rating SETVI: A rating 0 indicates growth as untreated control; a rating 9 indicates death; conditions: PRE, 0-9 scale, 21 days after spraying
# [20] = system: Glycine max; experiment: Pre-emergence herbicidal test, GLXMA; parameters: key to herbicidal effect (0-9 scale) GLXMA / herbicidal rating GLXMA: A rating 0 indicates growth as untreated control; a rating 9 indicates death; conditions: for herbicidal rating GLXMA: PRE, 0-9 scale, 21 days after spraying
# [21] = system: representative range of plants; experiment: Herbicidal activity, pre- and post-emergence, overall; conditions: both in pre- and post-emergence
# Procedure: as §1
# (§5) The pre-emergence tests involve spraying a liquid formulation of the compound onto the soil in which the seeds of the plant species mentioned above has recently been sown.
# The soil used in the tests is a prepared horticultural loam. The formulations used in the tests are prepared from solutions of the test compounds in acetone containing 0.4% by weight of an alkylphenol/ethylene oxide condensate available under the trade mark TRITON X-155. These acetone solutions are diluted with water and the resulting formulations applied at dosage levels corresponding to 1000 g and 250 g/ha of active material per hectare in a volume equivalent to 900 litres per hectare. In these tests untreated sown soil are used as controls.
# These acetone solutions are diluted with water and the resulting formulations applied at dosage levels equivalent to about 1000, 800, 400, 250 or 100 g/ha per hectare of test compound per pot. After spraying, the plants are placed on greenhouse benches and are cared for in the usual manner, commensurate with conventional greenhouse practices.
# as §2
# [22] = system: representative range of plants; experiment: Pre-emergence herbicidal test, summary over the plants tested; conditions: 100 g/ha
# Procedure: as §1, §5
# The soil used in the tests is a prepared horticultural loam. The formulations used in the tests are prepared from solutions of the test compounds in acetone containing 0.4% by weight of an alkylphenol/ethylene oxide condensate available under the trade mark TRITON X-155. […] In these tests untreated sown soil are used as controls.
# as §2
# [23] = system: Alopecurus myosuroides; experiment: Post-emergence herbicidal test, ALOMY; parameters: key: A rating 0 indicates growth as untreated control; a rating 9 indicates death; conditions: 0-9 scale, 21 days after spraying
# Method in brief: as §4
structure (smiles),measurement,setting,value
"Cn1c(C(F)(F)F)cc(=O)n(-n2ncc3c(Cl)cccc32)c1=O [Example 168, 3-(4-Chloro-1-indazol-1-yl)-1-methyl-6trifluoromethylpyrimidine-2,4-dione]",control of broadleaf weeds,[1]; 12.5 g/ha,all broadleaf weeds were still well controlled
same,control of the weeds,[1]; 100 g/ha,good cross spectrum control on both broadleaf weeds and grasses except Alopecurus and Echinochloa
same,herbicidal rating ALOMY,[2]; 12.5 g/ha,0
same,herbicidal rating ALOMY,[2]; 25 g/ha,0
same,herbicidal rating ALOMY,[2]; 100 g/ha,2
same,control of Alopecurus,"[2]; pre-emergence, 100 g/ha",well controlled
same,herbicidal rating MATIN,[3]; 12.5 g/ha,8
same,herbicidal rating MATIN,[3]; 25 g/ha,8
same,herbicidal rating MATIN,[3]; 100 g/ha,9
same,herbicidal rating GALAP,[4]; 12.5 g/ha,9
same,herbicidal rating GALAP,[4]; 25 g/ha,9
same,herbicidal rating GALAP,[4]; 100 g/ha,9
same,herbicidal rating STEME,[5]; 12.5 g/ha,1
same,herbicidal rating STEME,[5]; 25 g/ha,3
same,herbicidal rating STEME,[5]; 100 g/ha,9
same,herbicidal rating ZEAMX,[6]; 12.5 g/ha,0
same,herbicidal rating ZEAMX,[6]; 25 g/ha,0
same,herbicidal rating ZEAMX,[6]; 100 g/ha,1
same,selectivity in maize,"[6]; pre-emergence, 100 g/ha",Surprisingly good selectivity
same,herbicidal rating GALAP,[7]; 12.5 g/ha,3
same,herbicidal rating GALAP,[7]; 25 g/ha,6
same,herbicidal rating GALAP,[7]; 100 g/ha,9
same,herbicidal rating MATIN,[8]; 12.5 g/ha,8
same,herbicidal rating MATIN,[8]; 25 g/ha,9
same,herbicidal rating MATIN,[8]; 100 g/ha,9
same,herbicidal rating ABUTH,[9]; 12.5 g/ha,9
same,herbicidal rating ABUTH,[9]; 25 g/ha,9
same,herbicidal rating ABUTH,[9]; 100 g/ha,9
same,herbicidal rating ZEAMX,[10]; 12.5 g/ha,0
same,herbicidal rating ZEAMX,[10]; 25 g/ha,1
same,herbicidal rating ZEAMX,[10]; 100 g/ha,3
same,herbicidal rating ABUTH,[11]; 12.5 g/ha,9
same,herbicidal rating ABUTH,[11]; 25 g/ha,9
same,herbicidal rating ABUTH,[11]; 100 g/ha,9
same,herbicidal rating STEME,[12]; 12.5 g/ha,7
same,herbicidal rating STEME,[12]; 25 g/ha,7
same,herbicidal rating STEME,[12]; 100 g/ha,9
same,herbicidal rating IPOHE,[13]; 12.5 g/ha,0
same,herbicidal rating IPOHE,[13]; 25 g/ha,3
same,herbicidal rating IPOHE,[13]; 100 g/ha,7
same,herbicidal rating IPOHE,[14]; 12.5 g/ha,9
same,herbicidal rating IPOHE,[14]; 25 g/ha,9
same,herbicidal rating IPOHE,[14]; 100 g/ha,9
same,herbicidal rating GLXMA,[15]; 12.5 g/ha,5
same,herbicidal rating GLXMA,[15]; 25 g/ha,6
same,herbicidal rating GLXMA,[15]; 100 g/ha,9
same,herbicidal rating SETVI,[16]; 12.5 g/ha,6
same,herbicidal rating SETVI,[16]; 25 g/ha,7
same,herbicidal rating SETVI,[16]; 100 g/ha,9
same,herbicidal rating ECHCG,[17]; 12.5 g/ha,0
same,herbicidal rating ECHCG,[17]; 25 g/ha,1
same,herbicidal rating ECHCG,[17]; 100 g/ha,6
same,herbicidal rating ECHCG,[18]; 12.5 g/ha,0
same,herbicidal rating ECHCG,[18]; 25 g/ha,2
same,herbicidal rating ECHCG,[18]; 100 g/ha,8
same,herbicidal rating SETVI,[19]; 12.5 g/ha,2
same,herbicidal rating SETVI,[19]; 25 g/ha,5
same,herbicidal rating SETVI,[19]; 100 g/ha,9
same,herbicidal rating GLXMA,[20]; 12.5 g/ha,0
same,herbicidal rating GLXMA,[20]; 25 g/ha,0
same,herbicidal rating GLXMA,[20]; 100 g/ha,0
same,selectivity in soy beans,"[20]; pre-emergence, 100 g/ha",Surprisingly good selectivity
same,herbicidal performance,[21],good performance
same,control of the weeds,[22],four out of five broadleaf weeds were well controlled
same,herbicidal rating ALOMY,[23]; 12.5 g/ha,0
same,herbicidal rating ALOMY,[23]; 25 g/ha,1
same,herbicidal rating ALOMY,[23]; 100 g/ha,3

# From patent publication US6376426B1, “Herbicidal 3-(heterocycl-1-yl)-uracils” (BASF Aktiengesellschaft, priority 1999, dated 2002)
